“And” between values parts separate entries of the source, which are not always exact repeats. Identical values can stand only once. Records with an inconclusive call do not appear.
Tested on: CD8F1 mice, subcutaneous mammary adenocarcinoma, T/C%
Experiment: NCI In Vivo Anticancer Drug Screen. Data for tumor model Mammary Adenocarcinoma CD8F1 (subcutaneous) in CD8F1
Settings: higher = larger tumour
How it was run: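 Transplantable tumors were established in mice, animals were dosed with compound or vehicle, and survival or tumor size was then measured in both groups. The treated result was divided by the control result.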

[1] = endpoint: median tumor weight (est.), dose: 12.5 mg/kg/injection, schedule: Q07DX005 (ip), vehicle: gum acacia
[2] = endpoint: median tumor weight (est.), dose: 25.0 mg/kg/injection, schedule: Q07DX005 (ip), vehicle: gum acacia
[3] = endpoint: median tumor weight (est.), dose: 50.0 mg/kg/injection, schedule: Q07DX005 (ip), vehicle: gum acacia
[4] = endpoint: median tumor weight (est.), dose: 100.0 mg/kg/injection, schedule: Q07DX005 (ip), vehicle: gum acacia
[5] = endpoint: median tumor weight (est.), dose: 200.0 mg/kg/injection, schedule: Q07DX005 (ip), vehicle: gum acacia
[6] = endpoint: median tumor weight (est.), dose: 400.0 mg/kg/injection, schedule: Q07DX005 (ip), vehicle: gum acacia

COc1ccc2[nH]c3ccc4cc[n+](CCN5CCC(C6CCN(CC[n+]7ccc8ccc9[nH]c%10ccc(OC)cc%10c9c8c7)CC6)CC5)cc4c3c2c1
T/C (endpoint: median tumor weight change, dose: 62.5 mg/kg/injection, schedule: Q01DX001 (ip), vehicle: Klucel (hydroxypropylcellulose) (HPC)): 58 % of control | T/C (endpoint: median tumor weight change, dose: 125.0 mg/kg/injection, schedule: Q01DX001 (ip), vehicle: Klucel (hydroxypropylcellulose) (HPC)): 68 % of control

COC1/C=C\C=C(/C)C(=O)NC2=CC(=O)C=C(C2=O)C(OC)C(C)CC(OC)C(OC)C(C)/C=C(/C)C1OC(N)=O (stereo not given)
T/C (endpoint: median tumor weight change, dose: 1.88 mg/kg/injection, schedule: Q01DX001 (ip), vehicle: Klucel (hydroxypropylcellulose) (HPC)): 103 % of control | T/C (endpoint: median tumor weight change, dose: 3.75 mg/kg/injection, schedule: Q01DX001 (ip), vehicle: Klucel (hydroxypropylcellulose) (HPC)): 46 % of control

COc1ccc(CC2C(=O)NC(C)C(=O)N(C)C3C(=O)N(C)C(Cc4ccc(O)c(c4)Oc4ccc(cc4)C3O)C(=O)NC(C)C(=O)NC(C)C(=O)N2C)cc1 (stereo not given)
T/C (endpoint: median tumor weight (est.), dose: 0.12 mg/kg/injection, schedule: Q07DX005 (ip), vehicle: suspension in saline): 116 % of control | T/C (endpoint: median tumor weight (est.), dose: 0.25 mg/kg/injection, schedule: Q07DX005 (ip), vehicle: suspension in saline): 93 % of control | T/C (endpoint: median tumor weight (est.), dose: 0.5 mg/kg/injection, schedule: Q07DX005 (ip), vehicle: suspension in saline): 95 % of control | T/C (endpoint: median tumor weight (est.), dose: 1.0 mg/kg/injection, schedule: Q07DX005 (ip), vehicle: suspension in saline): 94 % of control | T/C (endpoint: median tumor weight (est.), dose: 2.0 mg/kg/injection, schedule: Q07DX005 (ip), vehicle: suspension in saline): 99 % of control | T/C (endpoint: median tumor weight (est.), dose: 4.0 mg/kg/injection, schedule: Q07DX005 (ip), vehicle: suspension in saline): 114 % of control

CCN(CC)CCOCCO
T/C (endpoint: median tumor weight change, dose: 62.5 mg/kg/injection, schedule: Q01DX001 (ip), vehicle: saline): 151 % of control | T/C (endpoint: median tumor weight change, dose: 125.0 mg/kg/injection, schedule: Q01DX001 (ip), vehicle: saline): 172 % of control | T/C (endpoint: median tumor weight change, dose: 250.0 mg/kg/injection, schedule: Q01DX001 (ip), vehicle: saline): 65 % of control

CCCCCCCCCCCCCCCCS(=O)CC(O)COC(=O)c1ccc(C(=O)OCC(O)CS(=O)CCCCCCCCCCCCCCCC)cc1 (stereo not given)
T/C (endpoint: median tumor weight (est.), dose: 12.5 mg/kg/injection, schedule: Q07DX005 (ip), vehicle: saline + Tween-80 + alcohol): 68 % of control and 88 % of control | T/C (endpoint: median tumor weight (est.), dose: 25.0 mg/kg/injection, schedule: Q07DX005 (ip), vehicle: saline + Tween-80 + alcohol): 69 % of control and 79 % of control | T/C (endpoint: median tumor weight (est.), dose: 200.0 mg/kg/injection, schedule: Q07DX005 (ip), vehicle: saline + Tween-80 + alcohol): 48 % of control and 64 % of control | T/C (endpoint: median tumor weight (est.), dose: 400.0 mg/kg/injection, schedule: Q07DX005 (ip), vehicle: saline + Tween-80 + alcohol): 78 % of control and 84 % of control

CN1C(=O)NC(c2ccc(Cl)cc2)(c2ccc(Cl)cc2)C1=O
T/C (endpoint: median tumor weight change, dose: 125.0 mg/kg/injection, schedule: Q01DX001 (ip), vehicle: distilled water + Tween-80): 98 % of control | T/C (endpoint: median tumor weight change, dose: 250.0 mg/kg/injection, schedule: Q01DX001 (ip), vehicle: distilled water + Tween-80): 80 % of control | T/C (endpoint: median tumor weight change, dose: 500.0 mg/kg/injection, schedule: Q01DX001 (ip), vehicle: distilled water + Tween-80): 70 % of control | T/C (endpoint: median tumor weight change, dose: 1000.0 mg/kg/injection, schedule: Q01DX001 (ip), vehicle: distilled water + Tween-80): 40 % of control

CC(=O)c1c(O)c(C)c(O)c2c1OC1=CC(=O)C(C(C)=O)C(=O)C12C (stereo not given)
T/C (endpoint: median tumor weight (est.), dose: 12.5 mg/kg/injection, schedule: Q07DX004 (ip), vehicle: gum acacia): 44 % of control | T/C [1]: 95 % of control | T/C (endpoint: median tumor weight (est.), dose: 25.0 mg/kg/injection, schedule: Q07DX004 (ip), vehicle: gum acacia): 78 % of control | T/C [2]: 120 % of control | T/C (endpoint: median tumor weight (est.), dose: 50.0 mg/kg/injection, schedule: Q04DX005 (ip), vehicle: gum acacia): 79 % of control and 97 % of control | T/C (endpoint: median tumor weight (est.), dose: 50.0 mg/kg/injection, schedule: Q07DX004 (ip), vehicle: gum acacia): 85 % of control | T/C [3]: 85 % of control | T/C (endpoint: median tumor weight (est.), dose: 100.0 mg/kg/injection, schedule: Q07DX004 (ip), vehicle: gum acacia): 114 % of control | T/C [4]: 74 % of control | T/C [5]: 102 % of control | T/C (endpoint: median tumor weight (est.), dose: 400.0 mg/kg/injection, schedule: Q04DX005 (ip), vehicle: gum acacia): 97 % of control | T/C (endpoint: median tumor weight (est.), dose: 400.0 mg/kg/injection, schedule: Q07DX004 (ip), vehicle: gum acacia): 42 % of control | T/C [6]: 96 % of control

CCCCCCCCCCCCCCCCCCCCCC(=O)Nc1ccn(C2OC(CO)C(O)C2O)c(=O)n1 (stereo not given)
T/C (endpoint: median tumor weight (est.), dose: 12.5 mg/kg/injection, schedule: Q07DX005 (ip), vehicle: saline with Tween-80): 104 % of control | T/C (endpoint: median tumor weight (est.), dose: 25.0 mg/kg/injection, schedule: Q07DX005 (ip), vehicle: saline with Tween-80): 68 % of control | T/C (endpoint: median tumor weight (est.), dose: 50.0 mg/kg/injection, schedule: Q07DX005 (ip), vehicle: saline with Tween-80): 75 % of control | T/C (endpoint: median tumor weight (est.), dose: 100.0 mg/kg/injection, schedule: Q07DX005 (ip), vehicle: saline with Tween-80): 69 % of control | T/C (endpoint: median tumor weight (est.), dose: 200.0 mg/kg/injection, schedule: Q07DX005 (ip), vehicle: saline with Tween-80): 49 % of control | T/C (endpoint: median tumor weight (est.), dose: 400.0 mg/kg/injection, schedule: Q07DX005 (ip), vehicle: saline with Tween-80): 53 % of control

CC(C)[NH-].CC(C)[NH-].O.O.[Cl][Pt+2][Cl]
T/C (endpoint: median tumor weight (est.), dose: 6.25 mg/kg/injection, schedule: Q07DX005 (ip), vehicle: dextrose): 121 % of control | T/C (endpoint: median tumor weight (est.), dose: 12.5 mg/kg/injection, schedule: Q07DX005 (ip), vehicle: dextrose): 121 % of control | T/C (endpoint: median tumor weight (est.), dose: 25.0 mg/kg/injection, schedule: Q07DX005 (ip), vehicle: dextrose): 110 % of control | T/C (endpoint: median tumor weight (est.), dose: 50.0 mg/kg/injection, schedule: Q07DX005 (ip), vehicle: dextrose): 8 % of control

Nc1n[n+](-c2ccccc2)no1
T/C (endpoint: median tumor weight (est.), dose: 3.12 mg/kg/injection, schedule: Q07DX005 (ip), vehicle: water): 82 % of control | T/C (endpoint: median tumor weight (est.), dose: 50.0 mg/kg/injection, schedule: Q07DX005 (ip), vehicle: water): 10 % of control and 34 % of control | T/C (endpoint: median tumor weight change, dose: 16.0 mg/kg/injection, schedule: Q01DX001 (ip), vehicle: water): 39 % of control | T/C (endpoint: median tumor weight change, dose: 31.0 mg/kg/injection, schedule: Q01DX001 (ip), vehicle: water): 70 % of control | T/C (endpoint: median tumor weight change, dose: 62.0 mg/kg/injection, schedule: Q01DX001 (ip), vehicle: water): 35 % of control

F[B-](F)(F)F
T/C [1]: 109 % of control | T/C [2]: 88 % of control | T/C [3]: 83 % of control | T/C [4]: 96 % of control | T/C [5]: 74 % of control | T/C [6]: 90 % of control

O=c1ssc(=Nc2ccccc2)n1-c1ccccc1
T/C (endpoint: median tumor weight (est.), dose: 25.0 mg/kg/injection, schedule: Q07DX005 (ip), vehicle: Klucel (hydroxypropylcellulose) (HPC)): 119 % of control | T/C (endpoint: median tumor weight (est.), dose: 50.0 mg/kg/injection, schedule: Q07DX005 (ip), vehicle: Klucel (hydroxypropylcellulose) (HPC)): 90 % of control | T/C (endpoint: median tumor weight (est.), dose: 100.0 mg/kg/injection, schedule: Q07DX005 (ip), vehicle: Klucel (hydroxypropylcellulose) (HPC)): 70 % of control | T/C (endpoint: median tumor weight (est.), dose: 200.0 mg/kg/injection, schedule: Q07DX005 (ip), vehicle: Klucel (hydroxypropylcellulose) (HPC)): 65 % of control | T/C (endpoint: median tumor weight (est.), dose: 400.0 mg/kg/injection, schedule: Q07DX005 (ip), vehicle: Klucel (hydroxypropylcellulose) (HPC)): 69 % of control

COC(C(=O)C(O)C(C)O)C1CC2C=C3C=C(OC4CC(OC5CC(O)C(OC)C(C)O5)C(OC(C)=O)C(C)O4)C(C)C(=O)C3=C(O)C2=C(O)C1OC1CC(OC2CC(OC3CC(C)(O)C(OC(=O)C(C)C)C(C)O3)C(O)C(C)O2)C(O)C(C)O1 (stereo not given)
T/C (endpoint: median tumor weight (est.), dose: 25.0 micrograms/kg/injection, schedule: Q07DX005 (ip), vehicle: saline): 74 % of control | T/C (endpoint: median tumor weight (est.), dose: 50.0 micrograms/kg/injection, schedule: Q07DX005 (ip), vehicle: saline): 78 % of control | T/C (endpoint: median tumor weight (est.), dose: 100.0 micrograms/kg/injection, schedule: Q07DX005 (ip), vehicle: saline): 65 % of control | T/C (endpoint: median tumor weight (est.), dose: 200.0 micrograms/kg/injection, schedule: Q07DX005 (ip), vehicle: saline): 48 % of control | T/C (endpoint: median tumor weight (est.), dose: 400.0 micrograms/kg/injection, schedule: Q07DX005 (ip), vehicle: saline): 73 % of control

Source: PubChem BioAssay AID220 (DTP/NCI, 2004)
